Data taken from patent publication US6355799B1, “Substituted benzene compounds, process for their preparation, and herbicidal and defoliant compositions containing them” (ISK Americas Incorporated, priority 1997, dated 2002).

Legend:
Type in all cases: in vivo
[1] = test system: johnsongrass (Sorghum halepense, SORHA); experiment: Post-emerge test, greenhouse herbicide activity screening; conditions: rating scale 0-100 (0 no damage, 100 complete death), 14 days after application
How it was run: (§1)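 Compounds in acetone were track-sprayed at 15-1000 g ai/ha (187 l/ha) on sandy loam pots: pre-emerge one day after seeding, post-emerge at 2-3 leaf stage with 0.25% v/v non-ionic surfactant. Phytotoxicity was rated 14 days later on a 0 (no damage) to 100 (complete death) scale.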

[2] = test system: large crabgrass (Digitaria sanguinalis, DIGSA); experiment: as above; conditions: 14 days after application; for Post-emerge Herbicidal Activity DIGSA (phytotoxicity rating): rating scale 0-100; for Post-emerge Herbicidal Activity, phytotoxicity rating DIGSA: rating scale 0-100 (0 no damage, 100 complete death)
How it was run: as §1

[3] = test system: green foxtail (Setaria viridis, SETVI); experiment: as above; conditions: 14 days after application; for Post-emerge Herbicidal Activity SETVI (phytotoxicity rating): rating scale 0-100; for Post-emerge Herbicidal Activity, phytotoxicity rating SETVI: rating scale 0-100 (0 no damage, 100 complete death)
How it was run: as §1

[4] = test system: ivyleaf morningglory (Ipomoea hederacea, IPOHE); experiment: as above; conditions: 14 days after application; for Post-emerge Herbicidal Activity IPOHE (phytotoxicity rating): rating scale 0-100; for Post-emerge Herbicidal Activity, phytotoxicity rating IPOHE: rating scale 0-100 (0 no damage, 100 complete death)
How it was run: as §1

[5] = test system: common ragweed (Ambrosia artemisizfolia L., AMBEL); experiment: as above; conditions: post-emerge, 14 days after application, rating scale 0-100
How it was run: as §1

[6] = test system: velvetleaf (Abutilon theophrasti, ABUTH); experiment: as above; conditions: 14 days after application; for Post-emerge Herbicidal Activity ABUTH (phytotoxicity rating): rating scale 0-100; for Post-emerge Herbicidal Activity, phytotoxicity rating ABUTH: rating scale 0-100 (0 no damage, 100 complete death)
How it was run: as §1

[7] = test system: sicklepod (Cassia obtusifolia, CASOB); experiment: as above; conditions: 14 days after application; for Post-emerge Herbicidal Activity CASOB (phytotoxicity rating): rating scale 0-100; for Post-emerge Herbicidal Activity, phytotoxicity rating CASOB: rating scale 0-100 (0 no damage, 100 complete death)
How it was run: as §1

[8] = test system: barnyardgrass (Echinochloa crus-galli, ECHCG); experiment: as above; conditions: 14 days after application; for Post-emerge Herbicidal Activity ECHCG (phytotoxicity rating): rating scale 0-100; for Post-emerge Herbicidal Activity, phytotoxicity rating ECHCG: rating scale 0-100 (0 no damage, 100 complete death)
How it was run: as §1

[9] = test system: redroot pigweed (Amaranthus retroflexus, AMARE); experiment: as above; conditions: 14 days after application
How it was run: as §1

[10] = test system: lambsquarters (Chenopodium album, CHEAL); experiment: as above; conditions: 14 days after application; for Post-emerge Herbicidal Activity CHEAL (phytotoxicity rating): rating scale 0-100; for Post-emerge Herbicidal Activity, phytotoxicity rating CHEAL: rating scale 0-100 (0 no damage, 100 complete death)
How it was run: as §1

[11] = test system: field corn (Zea mays L., var. Dekalb 535, CORN); experiment: Pre-emerge test, crop safety; conditions: rating scale 0-100, 14 days after application
How it was run: (§2)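 Herbicidal damage is scored 0 (none) to 100 (complete plant death) two weeks after a simulated field spray. Rates span 15–1000 g ai/ha, delivered in acetone at 187 l/ha. For post-emergence treatments, plants have 2–3 leaves and the spray carries 0.25% v/v non-ionic surfactant.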

[12] = test system: upland rice (Oryza sp., var. Tebonnet, RICE); experiment: Pre-emerge test, crop safety; conditions: rating scale 0-100, 14 days after application
How it was run: as §2

[13] = test system: johnsongrass (Sorghum halepense, SORHA); experiment: Pre-emerge test, greenhouse herbicide activity screening; conditions: rating scale 0-100, 14 days after application
How it was run: (§3)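 Visual ratings on a 0-100 scale (0 no damage, 100 all plants dead) were taken at 14 days after treatment. Rates of 15-1000 g ai/ha in acetone, 187 l/ha, were sprayed onto soil one day after planting (pre-emerge) or onto 2-3 leaf plants with 0.25% v/v surfactant (post-emerge).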

[14] = test system: large crabgrass (Digitaria sanguinalis, DIGSA); experiment: as above; conditions: rating scale 0-100, 14 days after application
How it was run: as §3

[15] = test system: green foxtail (Setaria viridis, SETVI); experiment: as above; conditions: rating scale 0-100, 14 days after application
How it was run: as §3

[16] = test system: ivyleaf morningglory (Ipomoea hederacea, IPOHE); experiment: as above; conditions: rating scale 0-100, 14 days after application
How it was run: as §3

[17] = test system: velvetleaf (Abutilon theophrasti, ABUTH); experiment: as above; conditions: rating scale 0-100, 14 days after application
How it was run: as §3

[18] = test system: sicklepod (Cassia obtusifolia, CASOB); experiment: as above; conditions: rating scale 0-100, 14 days after application
How it was run: as §3

[19] = test system: barnyardgrass (Echinochloa crus-galli, ECHCG); experiment: as above; conditions: rating scale 0-100, 14 days after application
How it was run: as §3

[20] = test system: lambsquarters (Chenopodium album, CHEAL); experiment: as above; conditions: rating scale 0-100, 14 days after application
How it was run: as §3

[21] = test system: field corn (Zea mays L., var. Dekalb 535, CORN); experiment: Post-emerge test, crop safety; conditions: 14 days after application; for Post-emerge Herbicidal Activity CORN (crop damage rating): rating scale 0-100; for Post-emerge phytotoxicity rating CORN (crop damage): rating scale 0-100 (0 no damage, 100 complete death)
How it was run: as §3

[22] = test system: upland rice (Oryza sp., var. Tebonnet, RICE); experiment: Post-emerge test, crop safety; conditions: 14 days after application; for Post-emerge Herbicidal Activity RICE (crop damage rating): rating scale 0-100; for Post-emerge phytotoxicity rating RICE (crop damage): rating scale 0-100 (0 no damage, 100 complete death)
How it was run: as §3

[23] = test system: redroot pigweed (Amaranthus retroflexus, AMARE); experiment: Pre-emerge test, greenhouse herbicide activity screening; conditions: rating scale 0-100, 14 days after application
How it was run: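 Compounds in acetone were track-sprayed at 187 l/ha, 15–1000 g ai/ha, onto sandy loam pots. Pre-emerge seeds were sown one day before spraying, with surface watering afterwards. Post-emerge plants were at the 2–3 leaf stage and sprayed with 0.25% v/v non-ionic surfactant. Injury was rated 0–100 at 14 days.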

## C#CCOC(=O)C(C)(Cl)Cc1c(OC)c(Cl)cc(F)c1-n1c(=O)cc(C(F)(F)F)n(C)c1=O (stereo not drawn) [14-44]
[1]; Rate 63 g ai/ha
  Post-emerge Herbicidal Activity, phytotoxicity rating SORHA: 30
[1]; Rate 250 g ai/ha
  Post-emerge Herbicidal Activity, phytotoxicity rating SORHA: 80
[2]; 63 g ai/ha
  Post-emerge Herbicidal Activity DIGSA (phytotoxicity rating): 40
[2]; 250 g ai/ha
  Post-emerge Herbicidal Activity DIGSA (phytotoxicity rating): 99
[2]; Rate 63 g ai/ha
  Post-emerge Herbicidal Activity, phytotoxicity rating DIGSA: 100
[2]; Rate 250 g ai/ha
  Post-emerge Herbicidal Activity, phytotoxicity rating DIGSA: 100
[3]; 63 g ai/ha
  Post-emerge Herbicidal Activity SETVI (phytotoxicity rating): 30
[3]; 250 g ai/ha
  Post-emerge Herbicidal Activity SETVI (phytotoxicity rating): 70
[3]; Rate 63 g ai/ha
  Post-emerge Herbicidal Activity, phytotoxicity rating SETVI: 100
[3]; Rate 250 g ai/ha
  Post-emerge Herbicidal Activity, phytotoxicity rating SETVI: 100
[4]; 63 g ai/ha
  Post-emerge Herbicidal Activity IPOHE (phytotoxicity rating): 30
[4]; 250 g ai/ha
  Post-emerge Herbicidal Activity IPOHE (phytotoxicity rating): 80
[4]; Rate 63 g ai/ha
  Post-emerge Herbicidal Activity, phytotoxicity rating IPOHE: 50
[4]; Rate 250 g ai/ha
  Post-emerge Herbicidal Activity, phytotoxicity rating IPOHE: 90
[5]; 63 g ai/ha
  Post-emerge Herbicidal Activity AMBEL (phytotoxicity rating): 30
[5]; 250 g ai/ha
  Post-emerge Herbicidal Activity AMBEL (phytotoxicity rating): 40
[6]; 63 g ai/ha
  Post-emerge Herbicidal Activity ABUTH (phytotoxicity rating): 100
[6]; 250 g ai/ha
  Post-emerge Herbicidal Activity ABUTH (phytotoxicity rating): 100
[6]; Rate 63 g ai/ha
  Post-emerge Herbicidal Activity, phytotoxicity rating ABUTH: 100
[6]; Rate 250 g ai/ha
  Post-emerge Herbicidal Activity, phytotoxicity rating ABUTH: 100
[7]; 63 g ai/ha
  Post-emerge Herbicidal Activity CASOB (phytotoxicity rating): 10
[7]; 250 g ai/ha
  Post-emerge Herbicidal Activity CASOB (phytotoxicity rating): 20
[7]; Rate 63 g ai/ha
  Post-emerge Herbicidal Activity, phytotoxicity rating CASOB: 0
[7]; Rate 250 g ai/ha
  Post-emerge Herbicidal Activity, phytotoxicity rating CASOB: 0
[8]; 63 g ai/ha
  Post-emerge Herbicidal Activity ECHCG (phytotoxicity rating): 100
[8]; 250 g ai/ha
  Post-emerge Herbicidal Activity ECHCG (phytotoxicity rating): 100
[8]; Rate 63 g ai/ha
  Post-emerge Herbicidal Activity, phytotoxicity rating ECHCG: 100
[8]; Rate 250 g ai/ha
  Post-emerge Herbicidal Activity, phytotoxicity rating ECHCG: 100
[9]; 63 g ai/ha, rating scale 0-100 (0 no damage, 100 complete death)
  Post-emerge Herbicidal Activity AMARE (phytotoxicity rating): 100
[9]; 250 g ai/ha, rating scale 0-100
  Post-emerge Herbicidal Activity AMARE (phytotoxicity rating): 100
[9]; Rate 63 g ai/ha, rating scale 0-100 (0 no damage, 100 complete death)
  Post-emerge Herbicidal Activity, phytotoxicity rating AMARE: 100
[9]; Rate 250 g ai/ha, rating scale 0-100 (0 no damage, 100 complete death)
  Post-emerge Herbicidal Activity, phytotoxicity rating AMARE: 100
[10]; 63 g ai/ha
  Post-emerge Herbicidal Activity CHEAL (phytotoxicity rating): 70
[10]; 250 g ai/ha
  Post-emerge Herbicidal Activity CHEAL (phytotoxicity rating): 99
[10]; Rate 63 g ai/ha
  Post-emerge Herbicidal Activity, phytotoxicity rating CHEAL: 100
[10]; Rate 250 g ai/ha
  Post-emerge Herbicidal Activity, phytotoxicity rating CHEAL: 100
[11]; 63 g ai/ha
  Pre-emerge phytotoxicity rating, crop damage CORN: 0
[11]; 250 g ai/ha
  Pre-emerge phytotoxicity rating, crop damage CORN: 0
[12]; 63 g ai/ha
  Pre-emerge phytotoxicity rating, crop damage RICE: 0
[12]; 250 g ai/ha
  Pre-emerge phytotoxicity rating, crop damage RICE: 50
[13]; 63 g ai/ha
  Pre-emerge herbicidal activity, phytotoxicity rating SORHA: 0
[13]; 250 g ai/ha
  Pre-emerge herbicidal activity, phytotoxicity rating SORHA: 0
[14]; 63 g ai/ha
  Pre-emerge herbicidal activity, phytotoxicity rating DIGSA: 0
[14]; 250 g ai/ha
  Pre-emerge herbicidal activity, phytotoxicity rating DIGSA: 90
[15]; 63 g ai/ha
  Pre-emerge herbicidal activity, phytotoxicity rating SETVI: 0
[15]; 250 g ai/ha
  Pre-emerge herbicidal activity, phytotoxicity rating SETVI: 70
[16]; 63 g ai/ha
  Pre-emerge herbicidal activity, phytotoxicity rating IPOHE: 0
[16]; 250 g ai/ha
  Pre-emerge herbicidal activity, phytotoxicity rating IPOHE: 0
[17]; 63 g ai/ha
  Pre-emerge herbicidal activity, phytotoxicity rating ABUTH: 80
[17]; 250 g ai/ha
  Pre-emerge herbicidal activity, phytotoxicity rating ABUTH: 100
[18]; 63 g ai/ha
  Pre-emerge herbicidal activity, phytotoxicity rating CASOB: 0
[18]; 250 g ai/ha
  Pre-emerge herbicidal activity, phytotoxicity rating CASOB: 0
[19]; 63 g ai/ha
  Pre-emerge herbicidal activity, phytotoxicity rating ECHCG: 0
[19]; 250 g ai/ha
  Pre-emerge herbicidal activity, phytotoxicity rating ECHCG: 50
[20]; 63 g ai/ha
  Pre-emerge herbicidal activity, phytotoxicity rating CHEAL: 70
[20]; 250 g ai/ha
  Pre-emerge herbicidal activity, phytotoxicity rating CHEAL: 100
[21]; 63 g ai/ha
  Post-emerge Herbicidal Activity CORN (crop damage rating): 99
[21]; 250 g ai/ha
  Post-emerge Herbicidal Activity CORN (crop damage rating): 100
[21]; Rate 63 g ai/ha
  Post-emerge phytotoxicity rating CORN (crop damage): 100
[21]; Rate 250 g ai/ha
  Post-emerge phytotoxicity rating CORN (crop damage): 100
[22]; 63 g ai/ha
  Post-emerge Herbicidal Activity RICE (crop damage rating): 5
[22]; 250 g ai/ha
  Post-emerge Herbicidal Activity RICE (crop damage rating): 0
[22]; Rate 63 g ai/ha
  Post-emerge phytotoxicity rating RICE (crop damage): 90
[22]; Rate 250 g ai/ha
  Post-emerge phytotoxicity rating RICE (crop damage): 100
[23]; 63 g ai/ha
  Pre-emerge herbicidal activity, phytotoxicity rating AMARE: 70
[23]; 250 g ai/ha
  Pre-emerge herbicidal activity, phytotoxicity rating AMARE: 100
